Results on 1 molecule are retold here after patent publication US20070292351A1, “Assay for efficacy of histone deacetylase inhibitors” (Methylgene, Inc., priority 2006, published 2007).

In one assay the test system is HDAC activity. As to the kind of experiment: Fluorescence-based whole cell HDAC enzyme assay in patients' peripheral white blood cells. The class given is in vivo, human. The protocol: At day 8 (72 h after the third dose), peripheral white blood cells were tested for HDAC activity by whole cell assay
Whole blood from either consenting healthy volunteers or consenting patients was centrifuged at 2500 rpm for 10 minutes at ambient temperature in a Sorvall RT-7 centrifuge (Mandel Scientific Co., Guelph, Ontario). Plasma was removed and buffy coat was collected. Five volumes of Erythrocyte Lysis Buffer (EL) (Qiagen Canada Inc., Mississauga, Ontario) were added into buffy coat. Buffy coat was incubated on ice for 20 minutes before it was centrifuged at 400 g for 10 minutes at 4° C. Supernatant was removed and buffy coat was washed twice with EL buffer and re-centrifuged. Buffy coat was resuspended in RPMI media and cells were counted with trypan blue exclusion. To isolate PBMCs, buffy coat cells were centrifuged over Lymphoprep (Axis-Shield, 1114544), and any remaining erythrocytes in the sample were lysed by treatment with EL lysis buffer (Qiagen, 79217). The cell pellets are washed and then re-suspended in RPMI containing 10% FBS.
Human patients with either solid tumors or leukemia/MDS diseases were enrolled in phase I studies with consensus forms. MGCD0103 were dosed into patients orally every other day (day 1, day 3, day 5 […]). Blood samples were withdrawled by using the Vacutainer sodium-heparin blood collection tubes (Becton Dickinson Laboratories, Franklin Lakes, N.J.) and shipped to the test site within 24 hours on ice-pack. Baseline samples were drawn immediately prior to the first drug dose, while the 24 hour samples were drawn at 24 hours post the first drug dose. The 48 hours samples were drawn at 48 hours post the first dose. For the 1 week samples, blood was drawn 72 hours after day 5 dose (3 accumulated doses during week 1).
Freshly trypsinized cells or cells in suspension were dispensed in 96-well black Costar E1A/RIA plates (Corning Inc., Corning, N.Y.). We typically used 5×10^4 to 2×10^5 cells per well, and 8×10^5 white blood (mouse or human) cells/per well. Small molecule substrate Boc-Lys(Ac)-AMC (Bachem Biosciences Inc., King of Prussia, Philadelphia) were added to cell suspension with the final concentration of 300 uM. Cells were placed in a 37° C. incubator with 5% CO2 for 90 minutes (in the case of white blood cells, we incubated for 60 min). Fluorescence was read immediately before adding stop mixture to get a background. […] Fluorescence was developed for 15 minutes at 37° C. and read in a fluorometer (SPECTRAMAX GeminiXS, Molecular Devices, Sunnyvale, Calif.) with an excitation wavelength at 360 nm, emission at 470 nm, and a cutoff of 435 nm.

For the next assay, the system named is histone H3 acetylation. As to the kind of experiment: Histone acetylation of nuclear extracts from white blood cells. In kind it is in vivo, human. Particulars: AML Patient A with clinical response (FIG. 9). How it is done: Human white peripheral cells were resuspended in 50 ul cold lysis buffer (10 mM Tris-HCl pH8.0, 1.5 mM MgCl2, 5 mM KCl, 0.5% NP-40, 5 mM Na butyrate plus protease inhibitors) and incubated on ice for 10 min. Cells were centrifuged at […] in an IEC Micromax centrifuge (Fisher Scientific Ltd., Nepean, Ontario) at 4° C. for 10-15 min and nuclei collected. Nuclei were washed with 50 ul lysis buffer by centrifugation at 2000 rpm at 4° C. for 10-15 min. Nuclei were resuspended in 35 ul ice cold Nuclear Lysis buffer (50 mM HEPES pH7.5, 500 mM NaCl, 1% NP-40, 1 mM EDTA, 10% glycerol, 5 mM NaButyrate and protease inhibitors) and sonicated 10 seconds using a VirSonic 300 sonicator (VirTis, Gardiner, N.Y.). Lysed nuclei were centrifuged at 15000 rpm at 4° C. for 5 min and supernatant collected for ELISA.
Black plates were coated with 50 ul of diluted anti-Histone antibodies (H11-4, Chemicon, Temecula, Calif.) (1:1000 in TBS) and incubated at ambient temperature for 2 hours. Plates were washed twice with 50 ul of PBS and blocked with 1% BSA+0.1% TritonX-100 in PBS (50 ul) for 45 minutes. […] Fluoroscence development was allowed for 60 minutes in foil and plates were read on a fluorometer (Gemini XS, Molecular Devices, Sunnyvale, Calif.) at Excitation at 550 nm and emission at 610 nm with a cutoff of 590 nm (Auto PMT, 15 reads/well). Data were analyzed using Excel.

The subject of a further assay is human RPMI8226 cells. As to the kind of experiment: IL-6 transcription in RPMI8226 cells. In kind it is cell-based. The settings on record: 24 hours (FIG. 14). The protocol: Quantitative PCR with SYBR Green I detection with Mastercycler® ep realplex (Eppendorf) was performed using LightCycler® 480 SYBR Green I Master (Roche Diagnostics). SYBR Green I assays were performed with 600 nM primers. All other reaction conditions were as described by the manufacturer. Amplification conditions were 5 minutes of initial denaturation at 95° C., followed by 40 cycles of each 15 seconds at 95° C., 15 seconds at 63.4° C., 20 seconds at 68° C., a melting curve from 60° C. to 95° C. was recorded. Quantification was performed using Pfaffl method, a relative quantification method in real-time PCR (Nucleic Acids Research 2001 29:2002-2007). Primers were synthesized by Invitrogen (Invitrogen-Canada, Burlington, Ont.).

In the case of `Nc1ccccc1NC(=O)c1ccc(CNc2nccc(-c3cccnc3)n2)cc1` [MGCD0103], the “inhibition of HDAC activity in peripheral white cells” value in the assay with HDAC activity (AML Patient A with clinical response (FIG. 9)) is “Time-dependent inhibition”. The molecule also registered an HDAC inhibition in the assay on HDAC activity (AML patient (Patient A) with clinical response, day 8) of 68%. Moreover, the “HDAC inhibition in vivo in peripheral white blood cells” value in the assay with HDAC activity (patients with solid tumors, one week (three doses per week), day 8 (FIG. 7)) is on record as “dose-dependent HDAC inhibition”. In the assay on HDAC activity (three other AML patients (no response), day 8), the “average HDAC inhibition” value is reported as less than 5%. Also, the “induction of histone H3 acetylation in peripheral white cells” value in the assay on histone H3 acetylation is “induction”. Also, the “dose-dependent induction of IL-6 transcription” value with human RPMI8226 cells is “dose-dependent induction”.
